According to ChEMBL document CHEMBL1201862, “PubChem BioAssay data set” (2004):
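Cultured in 96-well plates, cells were exposed to test compound for 48 hours across five concentrations. The concentration for 50% growth inhibition is given as GI50.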 Active and inactive are the calls of the source. Cut-off read from the data, not from the text of the source: active = GI50 up to about 1.1 µM and inactive = higher.

How the values were obtained:
Experiment in all cases: inhibition of tumour cell growth, NCI panel, 48 h
SK-MEL-28 = tested on: SK-MEL-28
HCT-116 = tested on: HCT-116
OVCAR-4 = tested on: OVCAR-4
UACC-62 = tested on: UACC-62
SW-620 = tested on: SW-620
HCT-15 = tested on: HCT-15
LOX IMVI = tested on: LOX IMVI
EKVX = tested on: EKVX
CAKI-1 = tested on: CAKI-1
SK-OV-3 = tested on: SK-OV-3
U-251 = tested on: U-251
MOLT-4 = tested on: MOLT-4
NCI-H23 = tested on: NCI-H23
SF-295 = tested on: SF-295
Malme-3M = tested on: Malme-3M
HOP-62 = tested on: HOP-62
HCC 2998 = tested on: HCC 2998
A498 = tested on: A498
NCI-H522 = tested on: NCI-H522
KM12 = tested on: KM12

Compound | GI50 (SK-MEL-28) | GI50 (HCT-116) | GI50 (OVCAR-4) | GI50 (UACC-62) | GI50 (SW-620) | GI50 (HCT-15) [µM] | GI50 (LOX IMVI) | GI50 (EKVX) | GI50 (CAKI-1) | GI50 (SK-OV-3) | GI50 (U-251) | GI50 (MOLT-4) | GI50 (NCI-H23) | GI50 (SF-295) | GI50 (Malme-3M) | GI50 (HOP-62) | GI50 (HCC 2998) | GI50 (A498) | GI50 (NCI-H522) | GI50 (KM12)
COc1ccc(C2C(C(=O)O)=C(COC(C)=O)Oc3cc4c(cc32)OCO4)cc1 (stereo not drawn) | > 100 µM (inactive) | > 100 µM (inactive) | > 100 µM (inactive) | > 100 µM (inactive) | > 100 µM (inactive) | > 100 | > 100 µM (inactive) | > 100 µM (inactive) | > 100 µM (inactive) | > 100 µM (inactive) | > 100 µM (inactive) | > 100 µM (inactive) | > 100 µM (inactive) | > 100 µM (inactive) | > 100 µM (inactive) | > 100 µM (inactive) |  |  |  | 
Nc1nn(CC(O)CO)c(=O)s1 (stereo not drawn) | 7.69 µM (inactive) | > 100 µM (inactive) | > 100 µM (inactive) | > 100 µM (inactive) | > 100 µM (inactive) | > 100 | > 100 µM (inactive) | > 100 µM (inactive) |  | > 100 µM (inactive) | > 100 µM (inactive) | > 100 µM (inactive) | > 100 µM (inactive) | > 100 µM (inactive) | > 100 µM (inactive) | > 100 µM (inactive) | > 100 µM (inactive) | > 100 µM (inactive) |  | 
CCP(=O)(CC)C(Cl)Cl | > 100 µM (inactive) | > 100 µM (inactive) | > 100 µM (inactive) |  | > 100 µM (inactive) | > 100 | > 100 µM (inactive) |  | > 100 µM (inactive) | > 100 µM (inactive) | > 100 µM (inactive) | > 100 µM (inactive) | > 100 µM (inactive) | > 100 µM (inactive) |  | > 100 µM (inactive) | > 100 µM (inactive) |  | > 100 µM (inactive) | 
COc1cc(CCCl)c(CC2=NCCc3cc(OC)c(OC)cc32)cc1OC | > 100 µM (inactive) | 24.4 µM (inactive) | > 100 µM (inactive) | 43.3 µM (inactive) | 85.5 µM (inactive) |  | 21.1 µM (inactive) | 88.9 µM (inactive) | 34 µM (inactive) | > 100 µM (inactive) | > 100 µM (inactive) | > 100 µM (inactive) | > 100 µM (inactive) | 19.8 µM (inactive) |  | 20.8 µM (inactive) | 61 µM (inactive) |  |  | 71.1 µM (inactive)
CCCCOP1(=O)C=CC(Cl)=C(C)C1 (stereo not drawn) | 16.3 µM (inactive) | 21.2 µM (inactive) | 25.2 µM (inactive) | 22.3 µM (inactive) | 20.4 µM (inactive) | 13.1 |  | 70.3 µM (inactive) | 68.7 µM (inactive) |  | > 10 µM (inactive) | 3.83 µM (inactive) | > 10 µM (inactive) | 18.2 µM (inactive) | 19.5 µM (inactive) | 71.3 µM (inactive) | > 10 µM (inactive) |  | > 10 µM (inactive) | 21.5 µM (inactive)
COC1C=CC(O)C(CO)O1 (stereo not drawn) | > 100 µM (inactive) | > 100 µM (inactive) | > 100 µM (inactive) | > 100 µM (inactive) | > 100 µM (inactive) | > 100 | > 100 µM (inactive) | > 100 µM (inactive) |  | > 100 µM (inactive) | > 100 µM (inactive) | > 100 µM (inactive) | > 100 µM (inactive) | > 100 µM (inactive) | > 100 µM (inactive) | > 100 µM (inactive) | > 100 µM (inactive) |  | > 100 µM (inactive) | > 100 µM (inactive)
NC[C@H]1Nc2ccccc2[C@@H](O)C1O (stereo partly drawn) | > 100 µM (inactive) | > 100 µM (inactive) | > 100 µM (inactive) | > 100 µM (inactive) | > 100 µM (inactive) | > 100 | > 100 µM (inactive) | > 100 µM (inactive) | > 100 µM (inactive) | > 100 µM (inactive) | > 100 µM (inactive) | > 100 µM (inactive) | > 100 µM (inactive) | > 100 µM (inactive) | > 100 µM (inactive) | > 100 µM (inactive) | > 100 µM (inactive) |  |  | > 100 µM (inactive)
CN(CCCCCl)P(=O)(OCC1=CC(=O)c2ccccc2C1=O)OC[C@H]1O[C@@H](n2cc(F)c(=O)[nH]c2=O)C[C@@H]1O (stereo partly drawn) | 4.11 µM (inactive) | 0.0693 µM (active) | 0.681 µM (active) | 0.0399 µM (active) | 3.51 µM (inactive) | 3.66 | < 0.01 µM (active) | 3.18 µM (inactive) | < 0.0115 µM (active) |  |  |  | 0.0532 µM (active) | < 0.0175 µM (active) | 1.1 µM (active) | 0.0415 µM (active) | < 0.01 µM (active) |  | 0.239 µM (active) | 3.64 µM (inactive)
